Measurements: ChEMBL document CHEMBL4002634, “Benzoflavones as cholesterol esterase inhibitors: Synthesis, biological evaluation and docking studies” (Bioorg Med Chem Lett, 2017)

Tests used:
[1] = biological target: T1, Carboxylic ester hydrolase (Sus scrofa) (UniProt A0A286ZKB1); experiment: Inhibition of porcine cholesterol esterase at 10 nM using para-nitrophenyl butyrate as substrate after 5 mins in presence of sodium taurocholate by spectrophotometric method relative to control
T1 sequence (whole entry): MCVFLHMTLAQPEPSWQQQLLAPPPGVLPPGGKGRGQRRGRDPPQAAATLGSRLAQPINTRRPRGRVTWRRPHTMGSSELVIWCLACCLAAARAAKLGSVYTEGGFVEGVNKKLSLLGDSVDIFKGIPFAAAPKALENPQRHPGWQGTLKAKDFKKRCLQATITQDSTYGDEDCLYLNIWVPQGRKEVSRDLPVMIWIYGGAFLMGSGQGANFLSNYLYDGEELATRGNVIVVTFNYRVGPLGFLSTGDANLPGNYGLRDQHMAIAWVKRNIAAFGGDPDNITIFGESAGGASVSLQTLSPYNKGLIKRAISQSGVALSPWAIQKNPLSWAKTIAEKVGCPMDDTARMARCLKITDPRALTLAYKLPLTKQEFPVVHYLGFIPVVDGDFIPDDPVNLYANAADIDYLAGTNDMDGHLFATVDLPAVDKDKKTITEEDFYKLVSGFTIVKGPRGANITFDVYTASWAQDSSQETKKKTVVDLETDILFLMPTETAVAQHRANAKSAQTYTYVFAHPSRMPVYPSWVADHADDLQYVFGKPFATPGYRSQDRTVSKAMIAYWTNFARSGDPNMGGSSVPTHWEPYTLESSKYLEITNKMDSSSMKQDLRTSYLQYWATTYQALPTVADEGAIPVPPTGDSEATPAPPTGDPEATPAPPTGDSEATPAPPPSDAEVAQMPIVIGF

[2] = biological target: T1, Carboxylic ester hydrolase (Sus scrofa); experiment: Inhibition of porcine cholesterol esterase at 25 nM using para-nitrophenyl butyrate as substrate after 5 mins in presence of sodium taurocholate by spectrophotometric method relative to control
[3] = biological target: T1, Carboxylic ester hydrolase (Sus scrofa); experiment: Inhibition of porcine cholesterol esterase at 1 nM using para-nitrophenyl butyrate as substrate after 5 mins in presence of sodium taurocholate by spectrophotometric method relative to control
[4] = biological target: T1, Carboxylic ester hydrolase (Sus scrofa); experiment: Inhibition of porcine cholesterol esterase at 5 nM using para-nitrophenyl butyrate as substrate after 5 mins in presence of sodium taurocholate by spectrophotometric method relative to control
[5] = biological target: T1, Carboxylic ester hydrolase (Sus scrofa); experiment: Inhibition of porcine cholesterol esterase at 50 nM using para-nitrophenyl butyrate as substrate after 5 mins in presence of sodium taurocholate by spectrophotometric method relative to control
[6] = biological target: T2, Carboxylic ester hydrolase (Sus scrofa, UniProt A0A286ZKB1); experiment: Inhibition of porcine cholesterol esterase using para-nitrophenyl butyrate as substrate after 5 mins in presence of sodium taurocholate by spectrophotometric method
T2 sequence (A0A286ZKB1 whole entry): T1 sequence (whole entry)

| Structure (SMILES) | inhibition [1] | inhibition [2] | inhibition [3] | inhibition [4] | inhibition [5] | IC50 ([6]; read-out: IC50) | IC50 [6] |
| --- | --- | --- | --- | --- | --- | --- | --- |
| O=c1cc(-c2ccc(F)cc2F)oc2c1ccc1ccccc12 | 80% | 91% | 51% | 66% | 97% | 1.43 nM |  |
| O=c1cc(-c2cccc(F)c2)oc2c1ccc1ccccc12 | 79% | 83% | 50% | 64% | 87% | 5.24 nM |  |
| O=c1cc(-c2ccc(Br)cc2)oc2c1ccc1ccccc12 | 74% | 76% | 40% | 59% | 77% | 28.5 nM |  |
| O=c1cc(-c2ccccc2I)oc2c1ccc1ccccc12 | 78% | 79% | 46% | 64% | 80% | 16.1 nM |  |
| O=c1cc(-c2ccc(F)cc2)oc2c1ccc1ccccc12 | 73% | 75% | 46% | 62% | 79% | 20.1 nM |  |
| O=c1cc(-c2cccc(CCl)c2)oc2c1ccc1ccccc12 | 52% | 62% | 35% | 45% | 68% | 40 nM |  |
| O=c1cc(-c2ccc(F)c(F)c2)oc2c1ccc1ccccc12 | 76% | 79% | 48% | 68% | 81% | 14.1 nM |  |
| O=c1cc(-c2cccc(C(F)(F)F)c2)oc2c1ccc1ccccc12 | 34% | 47% | 26% | 30% | 57% |  | Not Active |
| O=c1cc(-c2ccc(C(F)(F)F)cc2)oc2c1ccc1ccccc12 | 35% | 46% | 25% | 29% | 56% |  | Not Active |
| O=c1cc(-c2cccc([N+](=O)[O-])c2)oc2c1ccc1ccccc12 | 71% | 75% | 36% | 51% | 78% | 25.1 nM |  |
| O=c1cc(-c2cc(F)cc(C(F)(F)F)c2)oc2c1ccc1ccccc12 | 41% | 54% | 27% | 38% | 62% | 43 nM |  |
| O=c1cc(-c2ccc(I)cc2)oc2c1ccc1ccccc12 | 71% | 73% | 38% | 53% | 75% | 34.1 nM |  |
| COc1ccc(-c2cc(=O)c3ccc4ccccc4c3o2)c(OC)c1 | 21% | 25% | 6% | 12% | 28% |  | Not Active |
| CC(=O)Oc1ccc(-c2cc(=O)c3ccc4ccccc4c3o2)cc1 | 34% | 46% | 21% | 28% | 56% |  | Not Active |
| O=c1cc(-c2cc(F)ccc2C(F)(F)F)oc2c1ccc1ccccc12 | 41% | 54% | 26% | 34% | 63% | 41.3 nM |  |
| CN(C)c1ccc(-c2cc(=O)c3ccc4ccccc4c3o2)cc1 | 18% | 21% | 9% | 12% | 23% |  | Not Active |
| O=c1cc(-c2ccccc2Br)oc2c1ccc1ccccc12 | 79% | 81% | 51% | 66% | 83% | 11 nM |  |
| COc1ccc(-c2cc(=O)c3ccc4ccccc4c3o2)cc1 | 22% | 28% | 11% | 18% | 31% |  | Not Active |
